Measured values from patent US20070128217A1 (priority 2003, published 2007).

Tests used:
[1] = system: antibodies in sera from SARS patients (sera 1a, 1b, 2, 6, 37, 62, London, SARS-yellow, SARS-green); type: binding, human; design: Binding of serum 6 to linear peptides of protein X1 of SARS-CoV Urbani / Binding of serum 37 to linear peptides of protein X1 of SARS-CoV Urbani / Binding of serum 6 to looped/cyclic peptide (PEPSCAN-ELISA) / Binding of serum 37 to looped/cyclic peptide (PEPSCAN-ELISA) / Binding of serum 37 to looped/cyclic peptides of protein X1 of SARS-CoV Urbani / Binding of serum 6 to linear peptides of protein X2 / Binding of serum 37 to linear peptides of protein X2 / Binding of serum 37 to looped/cyclic peptides of protein X2 of SARS-CoV Urbani / Binding of serum 6 to linear peptides of protein M of SARS-CoV Urbani / Binding of serum 37 to linear peptides of protein M of SARS-CoV Urbani / Binding of serum 6 to looped/cyclic peptides of protein M of SARS-CoV Urbani / Binding of serum 37 to looped/cyclic peptides of protein M of SARS-CoV Urbani / Binding of serum 6 to linear peptides of protein X3 of SARS-CoV Urbani / Binding of serum 37 to linear peptides of protein X3 of SARS-CoV Urbani / Binding of serum 37 to looped/cyclic peptides of protein X3 of SARS-CoV Urbani / Binding of serum 6 to linear peptides of protein X4 of SARS-CoV Urbani / Binding of serum 37 to linear peptides of protein X4 of SARS-CoV Urbani / Binding of serum 37 to looped/cyclic peptides of protein X4 of SARS-CoV Urbani / Binding of serum 6 to linear peptides of protein X5 of SARS-CoV Urbani / Binding of serum 37 to linear peptides of protein X5 of SARS-CoV Urbani / Binding of serum 37 to looped/cyclic peptides of protein X5 of SARS-CoV Urbani / Binding of serum 6 to linear peptides of protein N of SARS-CoV Urbani / Binding of serum 37 to linear peptides of protein N of SARS-CoV Urbani / Binding of serum 6 to linear peptide (PEPSCAN-ELISA) / Binding of serum 1a to looped/cyclic peptides of protein N of SARS-CoV Urbani / Binding of serum 1b to looped/cyclic peptides of protein N of SARS-CoV Urbani / Binding of serum 2 to looped/cyclic peptides of protein N of SARS-CoV Urbani / Binding of serum 6 to looped/cyclic peptides of protein N of SARS-CoV Urbani / Binding of serum 37 to looped/cyclic peptides of protein N of SARS-CoV Urbani / Binding of serum 62 to looped/cyclic peptides of protein N of SARS-CoV Urbani / Binding of serum London to looped/cyclic peptides of protein N of SARS-CoV Urbani / Binding of serum SARS-green to looped/cyclic peptides of protein N of SARS-CoV Urbani: unit not given here
[2] = system: control sera (pooled serum of ten healthy LUMC hospital workers; commercial negative donor pooled serum from the Dutch bloodbank); type: binding, human; design: Binding of Control serum LUMC to linear peptides / Binding of Control serum Blood-bank to linear peptides / Binding of Control serum LUMC to looped peptides / Binding of Control Serum Blood-Bank to Looped peptides / Binding of Control serum LUMC to linear peptides of the protein M of SARS-CoV Urbani / Binding of Control serum Blood-bank to linear peptides of the protein M of SARS-CoV Urbani / Binding of Control serum LUMC to looped peptides of the protein M of SARS-CoV Urbani / Binding of Control Serum Blood-Bank to Looped peptides of the protein M of SARS-CoV Urbani: unit not given here
[3] = system: recombinant human anti-SARS-CoV antibody 03-018; type: binding; design: Binding of antibody 03-018 to linear peptides of the N protein of SARS-CoV Urbani / Binding of antibody 03-018 to looped/cyclic peptides of the N protein of SARS-CoV Urbani: unit not given here
[4] = system: rabbit serum obtained by immunizing a rabbit with the SARS-CoV strain Frankfurt 1; type: binding; design: Binding of a rabbit serum to linear peptides / Binding of a rabbit serum to looped peptides / Rabbit serum linear peptides / Rabbit serum looped peptides / Binding of a rabbit serum to linear peptides of protein N of SARS-CoV Urbani (Rabbit serum linear peptides) / Binding of a rabbit serum to looped/cyclic peptides of protein N of SARS-CoV Urbani (Rabbit serum looped peptides): unit not given here

| Sequence | Binding of serum 1a to linear peptides of protein N of SARS-CoV Urbani [1] | Binding of serum 1a to looped/cyclic peptides of protein N of SARS-CoV Urbani [1] | Binding of serum 1b to linear peptides of protein N of SARS-CoV Urbani [1] | Binding of serum 1b to looped/cyclic peptides of protein N of SARS-CoV Urbani [1] | Binding of serum 2 to linear peptides of protein N of SARS-CoV Urbani [1] | Binding of serum 2 to looped/cyclic peptides of protein N of SARS-CoV Urbani [1] | Binding of serum 6 to linear peptides of protein N of SARS-CoV Urbani [1] | Binding of serum 6 to looped/cyclic peptides of protein N of SARS-CoV Urbani [1] | Binding of serum 37 to linear peptides of protein N of SARS-CoV Urbani [1] | Binding of serum 37 to looped/cyclic peptides of protein N of SARS-CoV Urbani [1] | Binding of serum 62 to linear peptides of protein N of SARS-CoV Urbani [1] | Binding of serum 62 to looped/cyclic peptides of protein N of SARS-CoV Urbani [1] | Binding of serum London to linear peptides of protein N of SARS-CoV Urbani [1] | Binding of serum London to looped/cyclic peptides of protein N of SARS-CoV Urbani [1] | Binding of serum SARS-green to looped/cyclic peptides of protein N of SARS-CoV Urbani [1] | Binding of serum SARS-yellow to looped/cyclic peptides of protein N of SARS-CoV Urbani [1] | Binding of antibody 03-018 to linear peptides of the N protein of SARS-CoV Urbani [3] | Binding of antibody 03-018 to looped/cyclic peptides of the N protein of SARS-CoV Urbani [3] | Binding of a rabbit serum to linear peptides of protein N of SARS-CoV Urbani (Rabbit serum linear peptides) [4] | Binding of a rabbit serum to looped/cyclic peptides of protein N of SARS-CoV Urbani (Rabbit serum looped peptides) [4] | other results |
| --- | --- | --- | --- | --- | --- | --- | --- | --- | --- | --- | --- | --- | --- | --- | --- | --- | --- | --- | --- | --- | --- |
| SRIGMEVTPSGTWLT | 0.2 | 0.3 | 0.1 | 0.2 | 0.2 | 0.4 | 0.2 | 0.2 | 0.7 | 0.5 | 0.6 | 0.5 | 0.5 | 0.4 | 0.5 | 0.4 | 0.1 | 0.2 | 0.1 | 0.4 | Binding of serum SARS-green to linear peptides of protein N of SARS-CoV Urbani [1]: 0.4; Binding of serum SARS-yellow to linear peptides of protein N of SARS-CoV Urbani [1]: 0.6; Control Serum Blood-Bank Looped peptides [2]: 0.6; Control serum Blood-bank linear peptides [2]: 0.8; Control serum LUMC linear peptides [2]: 0.6; Control serum LUMC looped peptides [2]: 0.6 |
| SRSRGNSRNSTPGSS |  | 0.5 |  | 0.4 |  | 0.3 |  | 0.1 |  | 0.3 |  | 0.3 |  | 0.3 | 0.0 | 0.0 | 0.1 | 0.2 | 0.3 | 0.7 | Binding of serum 1a to linear peptide (PEPSCAN-ELISA) [1]: 1.0; Binding of serum 1b to linear peptide (PEPSCAN-ELISA) [1]: 0.6; Binding of serum 2 to linear peptide (PEPSCAN-ELISA) [1]: 0.3; Binding of serum 6 to linear peptide (PEPSCAN-ELISA) [1]: 0.2; Binding of serum 37 to linear peptide (PEPSCAN-ELISA) [1]: 0.7; Binding of serum 62 to linear peptide (PEPSCAN-ELISA) [1]: 0.7; Binding of serum London to linear peptide (PEPSCAN-ELISA) [1]: 0.5; Binding of serum SARS-green to linear peptide (PEPSCAN-ELISA) [1]: 0.4; Binding of serum SARS-yellow to linear peptide (PEPSCAN-ELISA) [1]: 0.6; Binding of Control Serum Blood-Bank to Looped peptides [2]: 0.5; Binding of Control serum Blood-bank to linear peptides [2]: 0.7; Binding of Control serum LUMC to linear peptides [2]: 0.5; Binding of Control serum LUMC to looped peptides [2]: 0.4 |
| SWFTALTQHGKEELR | 0.2 | 0.2 | 0.1 | 0.1 | 0.2 | 0.2 | 0.1 | 0.1 | 0.6 | 0.3 | 0.6 | 0.2 | 0.5 | 0.2 | 0.1 | 0.0 | 0.1 | 0.2 | 0.1 | 0.0 | Binding of serum SARS-green to linear peptides of protein N of SARS-CoV Urbani [1]: 0.2; Binding of serum SARS-yellow to linear peptides of protein N of SARS-CoV Urbani [1]: 0.5; Binding of Control Serum Blood-Bank to Looped peptides [2]: 0.4; Binding of Control serum Blood-bank to linear peptides [2]: 0.6; Binding of Control serum LUMC to linear peptides [2]: 0.7; Binding of Control serum LUMC to looped peptides [2]: 0.3 |
